Test results as given in patent US6127519A, “Calcitonin derivatives” (Tsumura & Co., priority 1990, dated 2000).
Bridge positions count the residues as written; N and C are the ends. Peptide text beside a SMILES is read from it.

System: calcium concentration in the serum
Test: Test 1: reduction of calcium level in serum after tail vein administration to rats
Assay type: in vivo, rats of the Wistar strain
Details: 1 ml/kg tail vein, female Wistar rats
Procedure, shortened: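 Female Wistar rats, six weeks old, were assigned in groups of 4 and given the test peptides through the tail vein at 1 ml/kg. The peptides were dissolved in 1% aqueous sodium acetate (pH 4,0) containing 0.1% BSA. Blood (0.3 ml) was drawn from the neck vein immediately before dosing and at set times afterward. Serum was separated by centrifuging at 3500 rpm for 20 minutes. Calcium was measured on a TBA-380 analyzer with a Wako o-cpc kit, and the percentage reduction in serum calcium was calculated.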

[1] = concentration 83 ng/ml, 0 hour (just before administration)
[2] = concentration 83 ng/ml, 2 hours
[3] = concentration 83 ng/ml, 4 hours
[4] = concentration 83 ng/ml, 6 hours
[5] = concentration 830 ng/ml, 0 hour (just before administration)
[6] = concentration 830 ng/ml, 1 hour
[7] = concentration 830 ng/ml, 2 hours
[8] = concentration 830 ng/ml, 4 hours
[9] = concentration 830 ng/ml, 6 hours

Row | SMILES | Serum calcium level as percent of pre-dose baseline [1] [%] | Serum calcium level as percent of pre-dose baseline (concentration 83 ng/ml, 1 hour) [%] | Serum calcium level as percent of pre-dose baseline [2] [%] | Serum calcium level as percent of pre-dose baseline [3] [%] | Serum calcium level as percent of pre-dose baseline [4] [%] | Serum calcium level as percent of pre-dose baseline [5] [%] | Serum calcium level as percent of pre-dose baseline [6] [%] | Serum calcium level as percent of pre-dose baseline [7] [%] | Serum calcium level as percent of pre-dose baseline [8] [%] | Serum calcium level as percent of pre-dose baseline [9] [%]
1 | CC[C@H](C)[C@H](NC(=O)[C@H](C)NC(=O)[C@@H](NC(=O)[C@H](CCC(N)=O)NC(=O)[C@@H]1CCCN1C(=O)[C@H](Cc1ccc(O)cc1)NC(=O)[C@@H](NC(=O)[C@H](CCC(N)=O)NC(=O)[C@H](CC(C)C)NC(=O)[C@H](CCCCN)NC(=O)[C@H](Cc1c[nH]cn1)NC(=O)[C@H](CC(C)C)NC(=O)[C@H](CCC(=O)O)NC(=O)[C@H](CCC(N)=O)NC(=O)[C@H](CO)NC(=O)[C@H](CC(C)C)NC(=O)[C@H](CCCCN)NC(=O)CNC(=O)[C@H](CC(C)C)NC(=O)[C@@H]1CCCN1C(=O)[C@@H]1CSSC[C@H](N)C(=O)NCC(=O)N[C@@H](CC(N)=O)C(=O)N[C@@H](CC(C)C)C(=O)N[C@@H](CO)C(=O)N[C@@H]([C@@H](C)O)C(=O)N1)[C@@H](C)O)[C@@H](C)O)C(=O)NCC(=O)N[C@H](C(=O)NCC(=O)N[C@@H](C)C(=O)N1CCC[C@H]1C(N)=O)C(C)C [Peptide No. 12] (H-CGNLSTCPLGKLSQELHKLQTYPQTAIGVGAP-NH2; disulfide 1-7) | 100.0 | 88.0 | 92.4 | 83.4 | 84.0 | 109.0 | 77.0 | 86.8 | 85.8 | 88.0
2 | CC[C@H](C)[C@H](NC(=O)[C@H](C)NC(=O)[C@@H](NC(=O)[C@H](CCC(N)=O)NC(=O)[C@@H]1CCCN1C(=O)[C@H](Cc1ccc(O)cc1)NC(=O)[C@@H](NC(=O)[C@H](CCC(N)=O)NC(=O)[C@H](CC(C)C)NC(=O)[C@H](CCCCN)NC(=O)[C@H](Cc1c[nH]cn1)NC(=O)[C@H](CC(C)C)NC(=O)[C@H](CCC(=O)O)NC(=O)[C@H](CCC(N)=O)NC(=O)[C@H](CO)NC(=O)[C@H](CC(C)C)NC(=O)[C@H](CCCCN)NC(=O)CNC(=O)[C@H](CC(C)C)NC(=O)[C@H](C)NC(=O)[C@@H]1CSSC[C@H](N)C(=O)NCC(=O)N[C@@H](CC(N)=O)C(=O)N[C@@H](CC(C)C)C(=O)N[C@@H](CO)C(=O)N[C@@H]([C@@H](C)O)C(=O)N1)[C@@H](C)O)[C@@H](C)O)C(=O)NCC(=O)N[C@H](C(=O)NCC(=O)N[C@@H](C)C(=O)N1CCC[C@H]1C(N)=O)C(C)C [Peptide No. 10] (H-CGNLSTCALGKLSQELHKLQTYPQTAIGVGAP-NH2; disulfide 1-7) | 100.0 | 68.7 | 77.9 | 90.6 | 81.6 | 100.0 | 70.2 | 65.4 | 76.1 | 84.2
3 | CC[C@H](C)[C@H](NC(=O)[C@H](C)NC(=O)[C@@H](NC(=O)[C@H](CCC(N)=O)NC(=O)[C@@H]1CCCN1C(=O)[C@H](Cc1ccc(O)cc1)NC(=O)[C@@H](NC(=O)[C@H](CCC(N)=O)NC(=O)[C@H](CCCCN)NC(=O)[C@H](Cc1c[nH]cn1)NC(=O)[C@H](CC(C)C)NC(=O)[C@H](CCC(=O)O)NC(=O)[C@H](CCC(N)=O)NC(=O)[C@H](CO)NC(=O)[C@H](CC(C)C)NC(=O)[C@H](CCCCN)NC(=O)CNC(=O)[C@H](CC(C)C)NC(=O)[C@H](CCSC)NC(=O)[C@@H]1CSSC[C@H](N)C(=O)NCC(=O)N[C@@H](CC(N)=O)C(=O)N[C@@H](CC(C)C)C(=O)N[C@@H](CO)C(=O)N[C@@H]([C@@H](C)O)C(=O)N1)[C@@H](C)O)[C@@H](C)O)C(=O)NCC(=O)N[C@@H](CO)C(=O)NCC(=O)N[C@H](C(=O)N1CCC[C@H]1C(N)=O)[C@@H](C)O [Peptide No. 6] (H-CGNLSTCMLGKLSQELHKQTYPQTAIGSGTP-NH2; disulfide 1-7) | – | – | – | – | – | 100.0 | 73.1 | 68.1 | 74.6 | 92.1
4 | CC[C@H](C)[C@H](NC(=O)[C@H](C)NC(=O)[C@@H](NC(=O)[C@H](CCC(N)=O)NC(=O)[C@@H]1CCCN1C(=O)[C@H](Cc1ccc(O)cc1)NC(=O)[C@@H](NC(=O)[C@H](CCC(N)=O)NC(=O)[C@H](CC(C)C)NC(=O)[C@H](CCCCN)NC(=O)[C@H](Cc1c[nH]cn1)NC(=O)[C@H](CC(C)C)NC(=O)[C@H](CCC(=O)O)NC(=O)[C@H](CCC(N)=O)NC(=O)[C@H](CO)NC(=O)[C@H](CC(C)C)NC(=O)[C@H](CCCCN)NC(=O)CNC(=O)[C@H](CC(C)C)NC(=O)CNC(=O)[C@@H]1CSSC[C@H](N)C(=O)NCC(=O)N[C@@H](CC(N)=O)C(=O)N[C@@H](CC(C)C)C(=O)N[C@@H](CO)C(=O)N[C@@H]([C@@H](C)O)C(=O)N1)[C@@H](C)O)[C@@H](C)O)C(=O)NCC(=O)N[C@H](C(=O)NCC(=O)N[C@@H](C)C(=O)N1CCC[C@H]1C(N)=O)C(C)C [Peptide No. 9] (H-CGNLSTCGLGKLSQELHKLQTYPQTAIGVGAP-NH2; disulfide 1-7) | 100.0 | 81.0 | 87.5 | 84.0 | 83.2 | 100.0 | 72.8 | 78.4 | 86.8 | 82.4
5 | CC[C@H](C)[C@H](NC(=O)[C@H](C)NC(=O)[C@@H](NC(=O)[C@H](CCC(N)=O)NC(=O)[C@@H]1CCCN1C(=O)[C@H](Cc1ccc(O)cc1)NC(=O)[C@@H](NC(=O)[C@H](CCC(N)=O)NC(=O)[C@H](CC(C)C)NC(=O)[C@H](CCCCN)NC(=O)[C@H](Cc1c[nH]cn1)NC(=O)[C@H](CC(C)C)NC(=O)[C@H](CCC(=O)O)NC(=O)[C@H](CCC(N)=O)NC(=O)[C@H](CO)NC(=O)[C@H](CC(C)C)NC(=O)[C@H](CCCCN)NC(=O)CNC(=O)[C@H](CC(C)C)NC(=O)[C@H](CC(C)C)NC(=O)[C@@H]1CCCCNC(=O)C[C@H](NC(C)=O)C(=O)N[C@@H](CC(N)=O)C(=O)N[C@@H](CC(C)C)C(=O)N[C@@H](CO)C(=O)N[C@@H]([C@@H](C)O)C(=O)N1)[C@@H](C)O)[C@@H](C)O)C(=O)NCC(=O)N[C@H](C(=O)NCC(=O)N[C@@H](C)C(=O)N1CCC[C@H]1C(N)=O)C(C)C [Peptide No. 25] (Ac-DNLSTKLLGKLSQELHKLQTYPQTAIGVGAP-NH2; lactam 1-6) | 100.0 | 76.9 | 67.6 | 66.7 | 71.3 | 100.0 | 73.4 | 64.3 | 51.8 | 44.3
6 | CC[C@H](C)[C@H](NC(=O)[C@H](C)NC(=O)[C@@H](NC(=O)[C@H](CCC(N)=O)NC(=O)[C@@H]1CCCN1C(=O)[C@H](Cc1ccc(O)cc1)NC(=O)[C@@H](NC(=O)[C@H](CCC(N)=O)NC(=O)[C@H](CC(C)C)NC(=O)[C@H](CCCCN)NC(=O)[C@H](Cc1c[nH]cn1)NC(=O)[C@H](CC(C)C)NC(=O)[C@H](CCC(=O)O)NC(=O)[C@H](CCC(N)=O)NC(=O)[C@H](CO)NC(=O)[C@H](CC(C)C)NC(=O)[C@H](CCCCN)NC(=O)CNC(=O)[C@H](CC(C)C)NC(=O)[C@H](CCSC)NC(=O)[C@@H]1CC(=O)NCCCC[C@H](N)C(=O)N[C@@H](CC(N)=O)C(=O)N[C@@H](CC(C)C)C(=O)N[C@@H](CO)C(=O)N[C@@H]([C@@H](C)O)C(=O)N1)[C@@H](C)O)[C@@H](C)O)C(=O)NCC(=O)N[C@H](C(=O)NCC(=O)N[C@@H](C)C(=O)N1CCC[C@H]1C(N)=O)C(C)C [Peptide No. 27] (H-KNLSTDMLGKLSQELHKLQTYPQTAIGVGAP-NH2; lactam 1-6) | 100.0 | 93.5 | 94.3 | 86.4 | 82.7 | 100.0 | 79.5 | 94.1 | 87.0 | 82.9
